In one experiment the target is T1, CDK4 (Homo sapiens, UniProt P11802).
T1 construct: endogenous in cells; host or cells: Calu-1
The experiment can be described thus: CDK4 percentage degradation in Calu-1 cells (immunoblotting). Format: cell-based. The conditions noted are these: for inhibition at 0.2 µM: read-out: CDK4 Degradation (200 nM); for inhibition at 10 µM: read-out: CDK4 Degradation (10 μM). In short, it runs like this: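 Cultured cells were rinsed once in cold PBS and lysed in cold RIPA buffer containing protease and phosphatase inhibitors, with gentle agitation at 4° C. for 30 min. Lysates were centrifuged at 13,000 rpm for 10 min at 4° C., and protein was quantified by BCA. Samples were then separated by SDS-PAGE, detected with ECL, and the CDK4 bands quantified in Image Lab.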
(In general: Immunoblotting shows a protein as a band on a membrane.)

In another experiment the test system is cyclin D1. Put plainly: Cyclin D1 percentage degradation in Calu-1 cells (immunoblotting). Format: cell-based. Conditions: 16 hours. The procedure, abridged:
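Cells were rinsed once in cold PBS and lysed in cold RIPA buffer containing protease and phosphatase inhibitors, with gentle agitation at 4° C. for 30 min. Lysates were spun at 13,000 rpm for 10 min at 4° C., protein was measured by BCA, and samples were boiled in Laemmli buffer at 99° C. for 5 min before SDS-PAGE immunoblotting.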

Like-named read-outs stand apart in the source and are kept apart here. Bounds are passed on as bounds.

T1 sequence (P11802 2-303 limits assumed): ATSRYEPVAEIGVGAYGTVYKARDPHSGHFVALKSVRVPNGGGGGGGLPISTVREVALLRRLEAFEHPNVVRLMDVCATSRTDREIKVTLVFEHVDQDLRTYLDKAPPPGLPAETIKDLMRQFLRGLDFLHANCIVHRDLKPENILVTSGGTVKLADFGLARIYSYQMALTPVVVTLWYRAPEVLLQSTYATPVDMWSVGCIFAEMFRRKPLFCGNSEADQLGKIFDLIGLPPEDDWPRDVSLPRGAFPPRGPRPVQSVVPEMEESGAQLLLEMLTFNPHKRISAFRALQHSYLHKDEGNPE
T1 sequence (P24385 whole entry partner): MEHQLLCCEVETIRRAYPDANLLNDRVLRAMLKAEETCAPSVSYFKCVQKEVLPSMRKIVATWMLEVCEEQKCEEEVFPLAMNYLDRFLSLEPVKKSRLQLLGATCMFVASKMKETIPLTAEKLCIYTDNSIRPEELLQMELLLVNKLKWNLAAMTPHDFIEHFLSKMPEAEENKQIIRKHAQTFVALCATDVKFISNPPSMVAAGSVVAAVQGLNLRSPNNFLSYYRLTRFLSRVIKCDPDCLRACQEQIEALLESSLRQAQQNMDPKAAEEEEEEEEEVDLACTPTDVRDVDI
T1 sequence (Q16531 2-1140 limits assumed, further chain): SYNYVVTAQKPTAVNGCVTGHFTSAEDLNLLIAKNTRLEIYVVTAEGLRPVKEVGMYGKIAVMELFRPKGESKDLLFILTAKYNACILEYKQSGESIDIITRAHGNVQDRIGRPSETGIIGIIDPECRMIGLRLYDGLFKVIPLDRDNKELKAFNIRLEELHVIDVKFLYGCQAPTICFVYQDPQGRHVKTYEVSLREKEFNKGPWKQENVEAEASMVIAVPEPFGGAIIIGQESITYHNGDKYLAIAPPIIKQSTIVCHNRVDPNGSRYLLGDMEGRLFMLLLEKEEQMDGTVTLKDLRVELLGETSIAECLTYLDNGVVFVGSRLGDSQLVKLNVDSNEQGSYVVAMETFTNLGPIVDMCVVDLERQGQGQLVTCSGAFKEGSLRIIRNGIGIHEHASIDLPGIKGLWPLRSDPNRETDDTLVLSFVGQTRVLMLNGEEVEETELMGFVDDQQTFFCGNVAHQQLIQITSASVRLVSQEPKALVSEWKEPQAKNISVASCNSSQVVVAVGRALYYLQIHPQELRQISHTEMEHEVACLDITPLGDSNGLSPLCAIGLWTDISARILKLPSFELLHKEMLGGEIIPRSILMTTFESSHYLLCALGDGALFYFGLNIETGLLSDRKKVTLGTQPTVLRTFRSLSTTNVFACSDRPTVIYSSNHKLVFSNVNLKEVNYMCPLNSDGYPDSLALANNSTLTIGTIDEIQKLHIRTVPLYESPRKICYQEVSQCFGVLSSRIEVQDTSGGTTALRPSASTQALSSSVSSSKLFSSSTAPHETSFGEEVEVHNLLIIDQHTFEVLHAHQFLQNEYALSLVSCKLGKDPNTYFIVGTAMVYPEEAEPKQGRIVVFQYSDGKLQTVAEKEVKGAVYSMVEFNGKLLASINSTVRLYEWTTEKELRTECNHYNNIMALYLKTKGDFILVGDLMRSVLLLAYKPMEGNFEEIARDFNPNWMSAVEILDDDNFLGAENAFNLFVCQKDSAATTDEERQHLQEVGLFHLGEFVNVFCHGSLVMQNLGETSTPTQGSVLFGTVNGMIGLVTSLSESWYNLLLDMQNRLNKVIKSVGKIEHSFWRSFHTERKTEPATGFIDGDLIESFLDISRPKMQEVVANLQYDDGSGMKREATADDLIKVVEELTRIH

With `CC(=O)c1c(C)c2cnc(Nc3ccc(N4CCN(CC(=O)NCCOCCOCCC(=O)Nc5ccccc5C(=O)Nc5ccc(C6CC6)cn5)CC4)cn3)nc2n(C2CCCC2)c1=O` [CPD-184, 2-(3-(2-(2-(2-(4-(6-((6-Acetyl-8-cyclopentyl-5-methyl-7-oxo-7,8-dihydropyrido[2,3-d]pyrimidin-2-yl)amino)pyridin-3-yl)piperazin-1-yl)acetamido)ethoxy)ethoxy)propanamido)-N-(5-cyclopropylpyridin-2-yl)benzamide], the inhibition at 0.2 µM on CDK4 (Calu-1 cells, 200 nM, 16 hours) lay in the range of 50 to 80%. Also, the “CyclinD1 Degradation (200 nM)” value in the experiment on cyclin D1 was “A (protein percentage degradation >=80%)”.

Take `CC(=O)c1c(C)c2cnc(Nc3ccc(N4CCN(CC(=O)NCCOCCOCCC(=O)Nc5ccccc5C(=O)Nc5ccc(N(C)C)nn5)CC4)cn3)nc2n(C2CCCC2)c1=O` [CPD-185, 2-(3-(2-(2-(2-(4-(6-((6-Acetyl-8-cyclopentyl-5-methyl-7-oxo-7,8-dihydropyrido[2,3-d]pyrimidin-2-yl)amino)pyridin-3-yl)piperazin-1-yl)acetamido)ethoxy)ethoxy)propanamido)-N-(6-(dimethylamino)pyridazin-3-yl)benzamide]: at CDK4 (Calu-1 cells, 200 nM, 16 hours), the inhibition at 0.2 µM is greater than 80%. For the same compound, in the experiment on cyclin D1, the “CyclinD1 Degradation (200 nM)” value is on record as “A (protein percentage degradation >=80%)”.

For the compound `CC(=O)c1c(C)c2cnc(Nc3ccc(N4CCN(CC(=O)NCCOCCOCCC(=O)Nc5ccccc5C(=O)Nc5cnc(C)nc5)CC4)cn3)nc2n(C2CCCC2)c1=O` [CPD-186, 2-(3-(2-(2-(2-(4-(6-((6-Acetyl-8-cyclopentyl-5-methyl-7-oxo-7,8-dihydropyrido[2,3-d]pyrimidin-2-yl)amino)pyridin-3-yl)piperazin-1-yl)acetamido)ethoxy)ethoxy)propanamido)-N-(2-methylpyrimidin-5-yl)benzamide], the inhibition at 0.2 µM on CDK4 (Calu-1 cells, 200 nM, 16 hours) was in the range of 50 to 80%. Also, the “CyclinD1 Degradation (200 nM)” value with cyclin D1 is “B (protein percentage degradation <80%, and >=50%)”.

Take `CC(=O)c1c(C)c2cnc(Nc3ccc(N4CCN(CCNCCOCCOCCC(=O)Nc5ccccc5C(=O)Nc5nc(C)c(C)s5)CC4)cn3)nc2n(C2CCCC2)c1=O` [CPD-187, 2-(3-(2-(2-((2-(4-(6-((6-Acetyl-8-cyclopentyl-5-methyl-7-oxo-7,8-dihydropyrido[2,3-d]pyrimidin-2-yl)amino)pyridin-3-yl)piperazin-1-yl)ethyl)amino)ethoxy)ethoxy)propanamido)-N-(4,5-dimethylthiazol-2-yl)benzamide]: the inhibition at 0.2 µM at CDK4 (Calu-1, 16 h) was less than 30%. For the same compound, the “CyclinD1 Degradation (200 nM)” value with cyclin D1 was “D (protein percentage degradation <30%)”.

As to `CC(=O)c1c(C)c2cnc(Nc3ccc(N4CCN(CCNCCCCCCCNc5cccc(C(=O)Nc6nc(C)c(C)s6)c5C)CC4)cn3)nc2n(C2CCCC2)c1=O` [CPD-188, 3-((7-((2-(4-(6-((6-Acetyl-8-cyclopentyl-5-methyl-7-oxo-7,8-dihydropyrido[2,3-d]pyrimidin-2-yl)amino)pyridin-3-yl)piperazin-1-yl)ethyl)amino)heptyl)amino)-N-(4,5-dimethylthiazol-2-yl)-2-methylbenzamide], on CDK4 (Calu-1, 16 h), the inhibition at 0.2 µM was less than 30%. In addition, the “CyclinD1 Degradation (200 nM)” value in the experiment with cyclin D1 is “D (protein percentage degradation <30%)”.

In the case of `CC(=O)c1c(C)c2cnc(Nc3ccc(N4CCN(CC(=O)NCCOCCOCCCNc5ccccc5C(=O)Nc5nc(C)c(C)s5)CC4)cn3)nc2n(C2CCCC2)c1=O` [CPD-267, 2-((3-(2-(2-(2-(4-(6-((6-Acetyl-8-cyclopentyl-5-methyl-7-oxo-7,8-dihydropyrido[2,3-d]pyrimidin-2-yl)amino)pyridin-3-yl)piperazin-1-yl)acetamido)ethoxy)ethoxy)propyl)amino)-N-(4,5-dimethylthiazol-2-yl)benzamide], the inhibition at 0.2 µM at CDK4 (Calu-1 cells, 200 nM, 16 hours) was 50 to 80%. Moreover, the “CyclinD1 Degradation (200 nM)” value with cyclin D1 is given as “A (protein percentage degradation >=80%)”.

Take `CC(=O)c1c(C)c2cnc(Nc3ccc(N4CCN(CC(=O)NCCCCCCCCCNc5ccccc5C(=O)Nc5nc(C)c(C)s5)CC4)cn3)nc2n(C2CCCC2)c1=O` [CPD-268, 2-((9-(2-(4-(6-((6-Acetyl-8-cyclopentyl-5-methyl-7-oxo-7,8-dihydropyrido[2,3-d]pyrimidin-2-yl)amino)pyridin-3-yl)piperazin-1-yl)acetamido)nonyl)amino)-N-(4,5-dimethylthiazol-2-yl)benzamide]: the inhibition at 0.2 µM on CDK4 (Calu-1 cells, 200 nM, 16 hours) fell in the range of 50 to 80%. Further, in the experiment on cyclin D1, the “CyclinD1 Degradation (200 nM)” value is “A (protein percentage degradation >=80%)”.

For `CC(=O)c1c(C)c2cnc(Nc3ccc(N4CCN(CC(=O)NCCCCC(=O)Nc5ccccc5C(=O)Nc5ccc(C)cn5)CC4)cn3)nc2n(C2CCCC2)c1=O` [CPD-269, 2-(5-(2-(4-(6-((6-Acetyl-8-cyclopentyl-5-methyl-7-oxo-7,8-dihydropyrido[2,3-d]pyrimidin-2-yl)amino)pyridin-3-yl)piperazin-1-yl)acetamido)pentanamido)-N-(5-methylpyridin-2-yl)benzamide], on CDK4 (Calu-1 cells, 200 nM, 16 hours), the inhibition at 0.2 µM lay within 50 to 80%. Besides, in the experiment on cyclin D1, the “CyclinD1 Degradation (200 nM)” value was “B (protein percentage degradation <80%, and >=50%)”.

Consider `CC(=O)c1c(C)c2cnc(Nc3ccc(N4CCN(CC(=O)NCCOCCOCCC(=O)Nc5ccccc5C(=O)Nc5ccc(C)c(C6CC6)n5)CC4)cn3)nc2n(C2CCCC2)c1=O` [CPD-270, 2-(3-(2-(2-(2-(4-(6-((6-Acetyl-8-cyclopentyl-5-methyl-7-oxo-7,8-dihydropyrido[2,3-d]pyrimidin-2-yl)amino)pyridin-3-yl)piperazin-1-yl)acetamido)ethoxy)ethoxy)propanamido)-N-(6-cyclopropyl-5-methylpyridin-2-yl)benzamide], for which the inhibition at 0.2 µM on CDK4 (Calu-1 cells, 200 nM, 16 hours) is 50 to 80%. The “CyclinD1 Degradation (200 nM)” value in the experiment on cyclin D1 is on record as “A (protein percentage degradation >=80%)”.

For `CC(=O)c1c(C)c2cnc(Nc3ccc(N4CCN(CCCCCOCCOCCNc5cccc(C(=O)Nc6nc(C)c(C)s6)c5C)CC4)cn3)nc2n(C2CCCC2)c1=O` [CPD-271, 3-((2-(2-((5-(4-(6-((6-Acetyl-8-cyclopentyl-5-methyl-7-oxo-7,8-dihydropyrido[2,3-d]pyrimidin-2-yl)amino)pyridin-3-yl)piperazin-1-yl)pentyl)oxy)ethoxy)ethyl)amino)-N-(4,5-dimethylthiazol-2-yl)-2-methylbenzamide], on CDK4 (Calu-1, 16 h), the inhibition at 0.2 µM is less than 30%. Moreover, the “CyclinD1 Degradation (200 nM)” value in the experiment on cyclin D1 is reported as “D (protein percentage degradation <30%)”.

For the compound `Cc1nc(NC(=O)c2ccccc2NC(=O)CNC(=O)CN2CCN(Cc3ccc(Nc4ncc(F)c(-c5cc(F)c6nc(C)n(C(C)C)c6c5)n4)nc3)CC2)sc1C` [CPD-272, N-(4,5-Dimethylthiazol-2-yl)-2-(2-(2-(4-((6-((5-fluoro-4-(4-fluoro-1-isopropyl-2-methyl-1H-benzo[d]imidazol-6-yl)pyrimidin-2-yl)amino)pyridin-3-yl)methyl)piperazin-1-yl)acetamido)acetamido)benzamide], the inhibition at 10 µM at CDK4 (Calu-1 cells, 16 hours) was less than 30%. In addition, the “CyclinD1 Degradation (10 μM)” value in the experiment on cyclin D1 was “D (protein percentage degradation < 30%)”.

`Cc1nc(NC(=O)c2ccccc2NC(=O)CCNC(=O)CN2CCN(Cc3ccc(Nc4ncc(F)c(-c5cc(F)c6nc(C)n(C(C)C)c6c5)n4)nc3)CC2)sc1C` [CPD-273, N-(4,5-Dimethylthiazol-2-yl)-2-(3-(2-(4-((6-((5-fluoro-4-(4-fluoro-1-isopropyl-2-methyl-1H-benzo[d]imidazol-6-yl)pyrimidin-2-yl)amino)pyridin-3-yl)methyl)piperazin-1-yl)acetamido)propanamido)benzamide]: the inhibition at 10 µM at CDK4 (Calu-1 cells, 16 hours) is less than 30%. For the same compound, the “CyclinD1 Degradation (10 μM)” value in the experiment on cyclin D1 was “D (protein percentage degradation < 30%)”.

Values taken from patent US20250235543A1, “MODIFIED PROTEINS AND PROTEIN DEGRADERS” (Cullgen (Shanghai), Inc., priority 2021, published 2025).
